Activity calls are given as the source filed them.
Experiments:
[1] = target: Tyrosine-protein phosphatase non-receptor type 5 (Homo sapiens, UniProt P54829); assay: STEP phosphatase inhibitors, confirmation, biochemical, fluorescence intensity, uHTS hits (AID 602372); assay type: functional; settings: read-out: IC50_Mean
[2] = target: Dual specificity protein phosphatase 3 (Homo sapiens, UniProt P51452); assay: VHR phosphatase inhibition, dose response, selectivity assay for STEP inhibitor project, biochemical (AID 602374); assay type: functional; settings: read-out: IC50_Mean
[3] = target: Tyrosine-protein phosphatase non-receptor type 11 (Homo sapiens, UniProt Q06124); assay: SHP2 phosphatase inhibition, dose response, selectivity assay for STEP inhibitor project, biochemical (AID 602367); assay type: functional; settings: read-out: IC50_Mean
[4] = target: T1, Low molecular weight phosphotyrosine protein phosphatase (Homo sapiens, UniProt P24666); assay type: functional; settings: read-out: IC50_Mean
[5] = target: T2, RNA-binding protein pos-1 (Caenorhabditis elegans, UniProt G5EF15); assay: inhibitors of POS-1/mex-3 RNA binding, dose response, biochemical, fluorescence polarization (AID 1964);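 further: purified POS-1 fused to maltose binding protein made in E. coli; potency of compounds blocking POS-1 binding to fluorescent RNA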
T2 sequence (G5EF15 whole entry): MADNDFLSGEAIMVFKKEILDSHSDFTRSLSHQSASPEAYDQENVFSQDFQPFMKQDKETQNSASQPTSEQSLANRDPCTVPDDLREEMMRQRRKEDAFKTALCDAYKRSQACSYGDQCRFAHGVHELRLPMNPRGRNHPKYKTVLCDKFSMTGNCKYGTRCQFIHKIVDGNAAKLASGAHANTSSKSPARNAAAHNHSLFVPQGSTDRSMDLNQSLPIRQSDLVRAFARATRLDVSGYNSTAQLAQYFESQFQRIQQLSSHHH

[6] = target: T1, Low molecular weight phosphotyrosine protein phosphatase; assay type: functional; settings: read-out: IC50_Mean; remark: listed apart in the source
[7] = target: T3, Zinc finger protein mex-5 (Caenorhabditis elegans, UniProt Q9XUB2); assay: MEX-5/TCR-2 RNA interaction inhibitors, dose response, biochemical, C. elegans, fluorescence polarization (AID 1960)
T3 sequence (Q9XUB2 whole entry): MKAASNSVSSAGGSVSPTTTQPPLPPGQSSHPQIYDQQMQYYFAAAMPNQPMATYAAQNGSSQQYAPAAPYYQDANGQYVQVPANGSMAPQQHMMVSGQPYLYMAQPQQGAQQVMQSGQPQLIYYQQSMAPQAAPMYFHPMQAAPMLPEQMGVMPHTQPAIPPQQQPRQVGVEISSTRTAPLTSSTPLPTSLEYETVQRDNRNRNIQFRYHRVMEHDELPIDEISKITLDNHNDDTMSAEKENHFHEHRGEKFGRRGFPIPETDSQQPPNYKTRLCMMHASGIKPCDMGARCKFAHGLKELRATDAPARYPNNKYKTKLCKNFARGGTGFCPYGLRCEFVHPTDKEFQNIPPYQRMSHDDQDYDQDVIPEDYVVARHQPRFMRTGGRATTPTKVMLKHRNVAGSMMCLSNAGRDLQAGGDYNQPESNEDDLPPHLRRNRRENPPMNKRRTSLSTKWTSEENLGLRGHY

[8] = target: Luciferin 4-monooxygenase (Photinus pyralis, UniProt P08659); assay: firefly luciferase enzyme inhibitors, dose response, biochemical, luminescence (AID 1891)
[9] = target: Nuclear receptor subfamily 5 group A member 2 (Homo sapiens, UniProt O00482); assay type: functional, cell-based;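 further: HEK293T cells transfected with LRH-1 and a StAR promoter luciferase reporter; potency for inhibitors that lower LRH-1 driven reporter light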
Steroidogenic factor 1 = Steroidogenic factor 1 (Homo sapiens, UniProt Q13285); assay: Counterscreen for inverse agonists of the liver receptor homolog-1 (LRH-1; NR5A2): Luminescence-based cell-based high throughput dose response assay to identify inverse agonists of the Steroidogenic Factor 1 Nuclear Receptor (SF1; NR5A1).; assay type: functional
[10] = Luminescence Cell-Based Dose Confirmation HTS to Identify Inhibitors of Platelet Dense Granule Release. [Related pubchem assays: 1663 (Primary HTS), 1678 (Summary of Project)]; assay type: functional
[11] = StAR promoter reporter inhibition counter-screen, dose response, counter-screen for LRH-1 inverse agonist project, cell-based, luminescence, luciferase reporter (AID 651969); assay type: functional
[12] = inhibitors of SNCA 5'UTR-driven reporter translation, confirmation, H4 neuroglioma cells, luminescence (AID 1988); assay type: functional, cell-based
cells = assay type: functional
[13] = inhibitors of firefly luciferase expression or activity, dose response, H4 neuroglioma cells, luminescence (AID 1990); assay type: functional, cell-based
[14] = Vero E6 cell cytotoxicity, dose response, cytotoxicity control for non-replicating M. tuberculosis project, secondary assay (AID 492998); assay type: functional, VeroE6; settings: Vero C1008
[15] = THP-1 cell cytotoxicity, dose response, cytotoxicity control for non-replicating M. tuberculosis project (AID 489025); assay type: functional
[16] = Luminescence Cell-Based Dose Response HTS to Identify Inhibitors of 5'UTR Stem-Loop Driven Prion Protein mRNA Translation in H4 Neuroglioblastoma Cells. [Related pubchem assays: 1827 (Project Summary), 1813 (Primary HTS)]; assay type: functional
[17] = HepG2 cell cytotoxicity, dose response, cytotoxicity control for non-replicating M. tuberculosis project (AID 489018); assay type: functional; settings: Mycobacterium tuberculosis
Melanocortin receptor 4 [18] = target: T4, Melanocortin receptor 4 (Homo sapiens, UniProt P32245); assay type: functional, cell-based;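 further: Cell-based assay with luminescence read-out, confirmatory dose-response testing for agonist activity of biased ligands at MC4R; human U2OS cells with tagged receptor and beta-arrestin; potency of agonists that increase receptor coupling to beta-arrestin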
Beta Lactamase = Beta Lactamase (Pseudomonas aeruginosa, UniProt Q932Y6); assay: beta-lactamase reporter inhibitor potency, dose response, artefact control for NOD2-RIPK2 interaction inhibitor project, BLA reporter cells, FRET fluorescence (AID 651552); assay type: functional, cell-based
[19] = nonselective inhibitors of cellular cAMP signaling, dose response, counter-screen for MC4R biased antagonist project, cell-based, TR-FRET cAMP detection (AID 602305); assay type: functional;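 further: U2OS cells stimulated with forskolin near its EC80 as the cAMP inducer; potency is for inhibition of forskolin-stimulated cAMP signaling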
[20] = target: T5, Replicative DNA helicase DnaB (Mycobacterium tuberculosis, UniProt P9WMR3); assay: DnaB intein splicing inhibitors, dose response, biochemical, cell-free fluorescence (AID 449749); assay type: functional
T5 sequence (P9WMR3 whole entry): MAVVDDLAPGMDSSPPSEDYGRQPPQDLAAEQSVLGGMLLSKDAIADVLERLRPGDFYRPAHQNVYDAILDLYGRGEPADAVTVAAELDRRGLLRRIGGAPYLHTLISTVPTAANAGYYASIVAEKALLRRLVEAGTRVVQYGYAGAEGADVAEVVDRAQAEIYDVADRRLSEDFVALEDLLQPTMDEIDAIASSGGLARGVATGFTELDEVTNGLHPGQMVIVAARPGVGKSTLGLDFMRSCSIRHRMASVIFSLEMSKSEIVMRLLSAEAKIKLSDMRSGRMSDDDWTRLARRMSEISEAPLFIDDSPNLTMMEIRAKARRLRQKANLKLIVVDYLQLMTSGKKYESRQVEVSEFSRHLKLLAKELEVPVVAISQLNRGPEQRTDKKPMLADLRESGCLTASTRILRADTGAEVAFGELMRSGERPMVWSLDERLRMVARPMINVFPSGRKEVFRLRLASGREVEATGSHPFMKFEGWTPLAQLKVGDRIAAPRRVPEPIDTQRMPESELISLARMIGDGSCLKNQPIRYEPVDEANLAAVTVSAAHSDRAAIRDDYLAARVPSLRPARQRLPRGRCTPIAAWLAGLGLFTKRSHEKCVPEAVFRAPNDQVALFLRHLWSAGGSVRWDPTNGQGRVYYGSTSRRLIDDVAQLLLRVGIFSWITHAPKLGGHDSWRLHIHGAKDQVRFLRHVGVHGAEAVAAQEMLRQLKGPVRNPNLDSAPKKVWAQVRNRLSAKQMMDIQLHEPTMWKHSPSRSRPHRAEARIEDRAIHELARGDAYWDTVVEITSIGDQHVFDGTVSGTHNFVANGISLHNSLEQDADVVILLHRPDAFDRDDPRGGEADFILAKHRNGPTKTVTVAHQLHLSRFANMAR

Protein RecA = target: T6, Protein RecA (Mycobacterium tuberculosis, UniProt P9WHJ3); assay: Fluorescence Cell-Free Homogeneous Dose Retest to Identify Inhibitors of RecA-Intein Splicing Activity. [Related pubchem assays (depositor defined):AID2097, AID2223, AID489010, AID492950]; assay type: functional
T6 sequence (P9WHJ3 whole entry): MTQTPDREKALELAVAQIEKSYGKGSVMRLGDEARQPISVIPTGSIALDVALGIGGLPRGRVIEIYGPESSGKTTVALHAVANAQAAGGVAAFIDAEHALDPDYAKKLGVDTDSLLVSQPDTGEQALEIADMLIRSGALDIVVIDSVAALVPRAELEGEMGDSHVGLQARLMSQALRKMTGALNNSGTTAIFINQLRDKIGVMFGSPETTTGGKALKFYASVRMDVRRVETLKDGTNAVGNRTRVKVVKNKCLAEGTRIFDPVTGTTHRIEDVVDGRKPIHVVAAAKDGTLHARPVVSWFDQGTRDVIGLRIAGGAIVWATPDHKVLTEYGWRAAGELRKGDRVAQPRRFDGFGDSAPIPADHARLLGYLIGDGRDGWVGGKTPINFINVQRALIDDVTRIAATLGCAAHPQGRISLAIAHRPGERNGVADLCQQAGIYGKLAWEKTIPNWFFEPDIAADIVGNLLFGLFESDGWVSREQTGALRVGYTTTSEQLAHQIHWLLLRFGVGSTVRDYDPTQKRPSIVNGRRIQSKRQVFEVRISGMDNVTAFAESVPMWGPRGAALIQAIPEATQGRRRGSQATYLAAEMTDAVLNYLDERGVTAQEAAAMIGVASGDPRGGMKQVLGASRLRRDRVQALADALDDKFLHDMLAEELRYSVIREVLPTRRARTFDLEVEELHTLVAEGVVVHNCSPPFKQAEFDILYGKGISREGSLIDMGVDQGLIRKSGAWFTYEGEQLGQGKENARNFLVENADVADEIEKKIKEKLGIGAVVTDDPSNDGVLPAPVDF

[21] = control 3'UTR Renilla luciferase suppression, dose response, counter-screen for Shn3 inhibitor project, cell-based, Clone20-Shn3RL, cherry-picked (AID 624133); assay type: functional
[22] = HepG2 cell cytotoxicity, dose response, cytotoxicity control for Shn3 inhibitor project, CellTiter-Glo, cherry-picked (AID 624134); assay type: functional, cell-based
[23] = Fluorescence-based cell-based high throughput dose response assay for inhibitors of the interaction of nucleotide-binding oligomerization domain containing 2 (NOD2) and the receptor-interacting serine-threonine kinase 2 (RIPK2).; assay type: functional; settings: Homo sapiens
[24] = Shn3 3'UTR reporter inhibitors, dose response, cell-based, Clone20 osteoblasts, firefly luciferase, cherry-picked (AID 624132); assay type: functional;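 further: firefly luciferase luminescence from reporter carrying the Shn3 3'UTR in osteoblasts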
Melanocortin receptor 4 [25] = target: T4, Melanocortin receptor 4; assay: MC4R antagonist potency on cAMP, dose response, cell-based, TR-FRET, biased antagonists (AID 602298); assay type: functional;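 further: antagonist potency against agonist-stimulated cAMP production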
[26] = target: Induced myeloid leukemia cell differentiation protein Mcl-1 (Homo sapiens, UniProt Q07820); assay type: functional
[27] = target: Hepatocyte nuclear factor 4-alpha (Homo sapiens, UniProt P41235); assay type: functional, cell-based;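 further: biochemical luminescence-based dose-response counterscreen measuring inhibition of HNF4 dimerization, run alongside a screen for blockers of ABHD5–perilipin-5 interaction; split luciferase complementation of HNF4 fusion proteins in cell lysate measuring dimerization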
Vero = assay: cells; assay type: functional; settings: Chlorocebus sabaeus
[28] = target: V-type proton ATPase subunit c' (Saccharomyces cerevisiae S288c, UniProt P32842); assay: Dose Response of Small Molecules that Regulate V-ATPase Proton Transport in Yeast using pHLuorin, Cherry Pick 2.; assay type: functional; settings: read-out: EC50_MICROM
Sequence of V-type proton ATPase subunit c' (P32842 whole entry): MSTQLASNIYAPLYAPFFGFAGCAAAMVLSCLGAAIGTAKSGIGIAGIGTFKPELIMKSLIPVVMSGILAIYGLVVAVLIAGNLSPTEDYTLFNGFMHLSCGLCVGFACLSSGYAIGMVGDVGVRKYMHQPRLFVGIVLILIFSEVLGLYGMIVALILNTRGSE

T1 sequence (P24666 whole entry, the tested form may be a part): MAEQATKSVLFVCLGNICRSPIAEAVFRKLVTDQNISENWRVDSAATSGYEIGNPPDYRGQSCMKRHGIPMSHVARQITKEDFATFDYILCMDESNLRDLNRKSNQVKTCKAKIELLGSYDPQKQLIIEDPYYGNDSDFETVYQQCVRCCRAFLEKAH
T4 sequence (P32245 whole entry): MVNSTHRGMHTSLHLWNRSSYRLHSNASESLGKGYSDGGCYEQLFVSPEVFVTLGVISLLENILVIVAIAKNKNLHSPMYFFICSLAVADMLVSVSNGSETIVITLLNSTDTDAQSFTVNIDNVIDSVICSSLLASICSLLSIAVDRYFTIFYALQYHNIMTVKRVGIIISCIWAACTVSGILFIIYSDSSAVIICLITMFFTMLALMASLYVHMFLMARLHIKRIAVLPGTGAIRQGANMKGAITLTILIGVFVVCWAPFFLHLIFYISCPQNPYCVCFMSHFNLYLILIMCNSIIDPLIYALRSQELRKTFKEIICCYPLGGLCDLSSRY
Sequence of Nuclear receptor subfamily 5 group A member 2 (O00482 whole entry): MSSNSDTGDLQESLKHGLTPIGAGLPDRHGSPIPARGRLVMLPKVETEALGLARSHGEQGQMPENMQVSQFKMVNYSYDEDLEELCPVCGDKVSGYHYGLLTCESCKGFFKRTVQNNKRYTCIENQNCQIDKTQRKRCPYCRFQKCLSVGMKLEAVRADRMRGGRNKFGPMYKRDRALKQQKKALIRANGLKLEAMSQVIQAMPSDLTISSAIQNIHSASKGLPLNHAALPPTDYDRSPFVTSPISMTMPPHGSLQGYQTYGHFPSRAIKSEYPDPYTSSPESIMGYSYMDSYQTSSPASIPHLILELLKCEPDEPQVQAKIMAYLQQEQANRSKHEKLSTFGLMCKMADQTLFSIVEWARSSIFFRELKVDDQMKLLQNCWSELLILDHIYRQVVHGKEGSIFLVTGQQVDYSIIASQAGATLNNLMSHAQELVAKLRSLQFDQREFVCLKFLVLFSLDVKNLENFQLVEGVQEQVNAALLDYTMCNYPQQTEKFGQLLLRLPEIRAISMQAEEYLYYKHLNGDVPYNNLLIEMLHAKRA
Sequence of Tyrosine-protein phosphatase non-receptor type 11 (Q06124 whole entry): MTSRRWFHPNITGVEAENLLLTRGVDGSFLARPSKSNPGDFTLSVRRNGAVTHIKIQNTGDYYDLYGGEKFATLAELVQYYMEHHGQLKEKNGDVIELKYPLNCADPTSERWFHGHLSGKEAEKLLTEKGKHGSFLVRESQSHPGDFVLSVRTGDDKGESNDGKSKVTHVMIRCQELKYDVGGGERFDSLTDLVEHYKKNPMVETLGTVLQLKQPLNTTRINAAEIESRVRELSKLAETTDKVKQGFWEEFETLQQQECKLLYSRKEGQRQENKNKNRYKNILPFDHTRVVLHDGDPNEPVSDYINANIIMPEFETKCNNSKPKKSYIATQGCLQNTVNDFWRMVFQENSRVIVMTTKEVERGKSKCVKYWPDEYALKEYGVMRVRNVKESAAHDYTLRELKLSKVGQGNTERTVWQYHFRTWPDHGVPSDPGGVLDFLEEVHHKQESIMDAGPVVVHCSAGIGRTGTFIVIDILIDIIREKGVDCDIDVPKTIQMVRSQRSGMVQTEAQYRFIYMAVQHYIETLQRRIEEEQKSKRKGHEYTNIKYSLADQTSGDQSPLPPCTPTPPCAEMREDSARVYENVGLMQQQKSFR
Sequence of Induced myeloid leukemia cell differentiation protein Mcl-1 (Q07820 whole entry, the tested form may be a part): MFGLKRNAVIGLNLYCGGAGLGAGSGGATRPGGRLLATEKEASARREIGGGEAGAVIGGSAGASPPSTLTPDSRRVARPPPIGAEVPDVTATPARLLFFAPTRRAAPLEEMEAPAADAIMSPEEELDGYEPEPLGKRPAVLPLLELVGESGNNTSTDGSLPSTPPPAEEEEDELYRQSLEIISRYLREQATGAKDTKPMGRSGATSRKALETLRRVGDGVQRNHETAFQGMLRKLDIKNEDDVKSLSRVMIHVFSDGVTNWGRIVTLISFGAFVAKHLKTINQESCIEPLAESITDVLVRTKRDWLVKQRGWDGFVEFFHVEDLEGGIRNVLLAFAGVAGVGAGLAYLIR
Sequence of Steroidogenic factor 1 (Q13285 whole entry): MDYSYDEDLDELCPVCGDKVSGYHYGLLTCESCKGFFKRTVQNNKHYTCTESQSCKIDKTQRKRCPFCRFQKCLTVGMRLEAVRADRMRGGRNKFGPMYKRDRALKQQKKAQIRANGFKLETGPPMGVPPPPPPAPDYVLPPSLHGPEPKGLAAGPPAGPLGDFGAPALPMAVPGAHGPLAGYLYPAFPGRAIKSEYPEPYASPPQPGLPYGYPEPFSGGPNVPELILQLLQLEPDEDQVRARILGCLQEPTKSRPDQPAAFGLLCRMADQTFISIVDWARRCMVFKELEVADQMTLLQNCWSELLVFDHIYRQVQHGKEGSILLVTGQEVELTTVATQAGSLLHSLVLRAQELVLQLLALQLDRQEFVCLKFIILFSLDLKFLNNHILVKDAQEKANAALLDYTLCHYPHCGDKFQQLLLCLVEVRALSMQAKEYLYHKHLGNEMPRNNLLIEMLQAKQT
Sequence of Hepatocyte nuclear factor 4-alpha (P41235 whole entry, the tested form may be a part): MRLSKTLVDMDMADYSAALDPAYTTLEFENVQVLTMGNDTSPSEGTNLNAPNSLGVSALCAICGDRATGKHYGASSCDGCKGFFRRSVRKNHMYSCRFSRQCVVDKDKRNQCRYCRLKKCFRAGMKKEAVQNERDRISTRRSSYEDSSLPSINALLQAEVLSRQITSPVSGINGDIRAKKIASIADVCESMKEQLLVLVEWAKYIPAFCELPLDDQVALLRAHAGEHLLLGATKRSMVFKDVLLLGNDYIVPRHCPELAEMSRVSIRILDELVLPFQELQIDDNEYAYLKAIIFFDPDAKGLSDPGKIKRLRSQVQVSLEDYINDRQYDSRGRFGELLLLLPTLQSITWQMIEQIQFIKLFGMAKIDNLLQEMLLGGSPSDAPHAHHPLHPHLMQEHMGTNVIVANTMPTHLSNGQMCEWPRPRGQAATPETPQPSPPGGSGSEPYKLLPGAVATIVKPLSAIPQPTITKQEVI
Sequence of Luciferin 4-monooxygenase (P08659 whole entry): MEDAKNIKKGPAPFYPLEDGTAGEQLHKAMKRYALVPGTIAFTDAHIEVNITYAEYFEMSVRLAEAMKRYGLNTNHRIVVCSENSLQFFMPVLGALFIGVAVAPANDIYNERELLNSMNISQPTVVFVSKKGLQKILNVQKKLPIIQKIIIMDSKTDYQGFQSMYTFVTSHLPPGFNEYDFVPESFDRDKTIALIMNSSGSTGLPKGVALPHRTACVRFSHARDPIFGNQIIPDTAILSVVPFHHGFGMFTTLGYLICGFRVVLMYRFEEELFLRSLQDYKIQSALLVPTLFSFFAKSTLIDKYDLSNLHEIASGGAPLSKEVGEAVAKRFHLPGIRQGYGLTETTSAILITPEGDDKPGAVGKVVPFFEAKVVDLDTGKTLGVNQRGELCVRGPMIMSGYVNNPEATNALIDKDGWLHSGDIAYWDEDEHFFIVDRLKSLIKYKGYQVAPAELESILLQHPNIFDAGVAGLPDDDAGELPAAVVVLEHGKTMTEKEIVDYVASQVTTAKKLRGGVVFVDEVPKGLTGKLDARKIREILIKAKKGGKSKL
Sequence of Tyrosine-protein phosphatase non-receptor type 5 (P54829 whole entry): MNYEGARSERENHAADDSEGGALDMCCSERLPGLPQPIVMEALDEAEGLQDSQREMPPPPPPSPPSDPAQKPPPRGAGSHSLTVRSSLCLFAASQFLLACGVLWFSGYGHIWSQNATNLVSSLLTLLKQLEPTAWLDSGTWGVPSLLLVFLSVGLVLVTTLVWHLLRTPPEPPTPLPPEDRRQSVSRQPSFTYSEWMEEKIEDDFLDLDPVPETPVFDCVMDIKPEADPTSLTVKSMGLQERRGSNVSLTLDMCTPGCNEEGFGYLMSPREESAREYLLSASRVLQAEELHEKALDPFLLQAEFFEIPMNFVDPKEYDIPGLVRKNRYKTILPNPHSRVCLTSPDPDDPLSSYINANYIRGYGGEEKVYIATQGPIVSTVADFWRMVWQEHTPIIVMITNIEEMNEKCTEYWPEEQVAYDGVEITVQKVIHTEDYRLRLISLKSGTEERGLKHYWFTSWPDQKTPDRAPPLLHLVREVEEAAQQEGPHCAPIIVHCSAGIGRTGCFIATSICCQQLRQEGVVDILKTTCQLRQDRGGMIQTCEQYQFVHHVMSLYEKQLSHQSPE
Sequence of Beta Lactamase (Q932Y6 whole entry): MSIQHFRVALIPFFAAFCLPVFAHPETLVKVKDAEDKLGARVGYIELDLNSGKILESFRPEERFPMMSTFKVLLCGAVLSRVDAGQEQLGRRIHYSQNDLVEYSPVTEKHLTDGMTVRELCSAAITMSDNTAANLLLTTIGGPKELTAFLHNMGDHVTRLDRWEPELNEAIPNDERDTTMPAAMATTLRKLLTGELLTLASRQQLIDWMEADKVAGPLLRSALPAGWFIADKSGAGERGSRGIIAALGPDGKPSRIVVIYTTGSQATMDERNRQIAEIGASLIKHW
Sequence of Dual specificity protein phosphatase 3 (P51452 whole entry): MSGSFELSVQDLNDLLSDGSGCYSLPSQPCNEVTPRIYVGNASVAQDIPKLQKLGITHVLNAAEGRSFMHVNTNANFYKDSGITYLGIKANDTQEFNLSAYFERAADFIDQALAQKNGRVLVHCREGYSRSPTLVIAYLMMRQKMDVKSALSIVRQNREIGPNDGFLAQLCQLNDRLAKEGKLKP

## Cc1ccc(NC(=O)CCn2c(=S)oc3ccccc32)cc1F
[1]
  IC50: > 80 µM (inactive)
[2]
  IC50: 7.02 µM (active)
[3]
  IC50: 3.14 µM (active)

## N#CC1=C(N)OC2=C(C(=O)CC(c3ccco3)C2)C1c1ccc(OCc2c(F)cccc2Cl)cc1 (stereo not drawn)
[4]
  IC50: > 80 µM (inactive)
[5]
  EC50: > 300 µM (not active)
[6]
  IC50: 35.1 µM (inactive)
[7]
  EC50: > 300 µM (not active)

## CCC(=O)Nc1nnc(SCC(=O)NCCc2ccc(OC)c(OC)c2)s1
[8]
  EC50: > 112 µM (not active)
[9]
  IC50: 12 µM (inactive)
Steroidogenic factor 1
  IC50: 2.05 µM (active)
[10]
  EC50: > 112 µM (not active)
[11]
  IC50: 35.9 µM (inactive)

## CN(C)CCCN(C(=O)CCc1ccccc1)c1nc2ccc(Cl)cc2s1
[12]
  EC50: > 120 µM (not active)
cells
  IC50: 22.9 µM (active)
[13]
  EC50: > 60 µM (not active)
[14]
  CC50: 17.1 µM (active)
[15]
  CC50: 16.6 µM (active)
[16]
  EC50: > 120 µM (not active)
[17]
  CC50: 12.4 µM (active)
Melanocortin receptor 4 [18]
  EC50: > 89.2 µM (inactive)

## Cc1cccc(CS(=O)(=O)c2ncc(Cl)c(C(=O)NCc3ccc4c(c3)OCO4)n2)c1
Beta Lactamase
  IC50: 21.1 µM (inactive)
[19]
  IC50: > 64.6 µM (inactive)
[20]
  AC50: 3.39 µM (active)
Protein RecA
  EC50: 3.52 µM (active)
[21]
  AC50: 11.3 µM (active)
[22]
  AC50: 41.3 µM (active)
[23]
  IC50: 3.95 µM (active)
[24]
  AC50: 0.938 µM (active)
Melanocortin receptor 4 [25]
  IC50: > 64.6 µM (inactive)

## Cc1cccc(NC(=O)CSc2nnc(-c3ccco3)c(-c3ccco3)n2)c1
[26]
  IC50: 5.78 µM (active)
[27]
  IC50: 1.42 µM (active)

## CN1C(=O)/C(=C\c2ccc(Br)s2)C(=O)NC1=S
Vero
  CC50: 22.9 µM (active)
[28]
  EC50: 6.43 µM (active)
